Test results published in the NIST ThermoML archive (doi:10.1016/j.tca.2018.10.018).
Numbers after ± are expanded uncertainties.

Assay: xn = mol fraction of the nth substance listed
Conditions: Liquid; for mass density: Siemens Coriolis flowmeter; for viscosity: Capillary tube (Ostwald / Ubbelohde) method

CCCCCCCCCC(=O)OC [methyl decanoate] + CCCCCCC
Conditions | mass density [kg/m3] | viscosity [mPa·s]
298.15 K, 12000 kPa, x1 = 0.101 | 718 ± 2 | –
298.15 K, 12000 kPa, x1 = 0.202 | 742 ± 2 | –
298.15 K, 12000 kPa, x1 = 0.299 | 764 ± 2 | –
298.15 K, 12000 kPa, x1 = 0.403 | 784 ± 2 | –
298.15 K, 12000 kPa, x1 = 0.501 | 802 ± 2 | –
298.15 K, 12000 kPa, x1 = 0.601 | 819 ± 2 | –
298.15 K, 12000 kPa, x1 = 0.698 | 835 ± 2 | –
298.15 K, 12000 kPa, x1 = 0.799 | 850 ± 2 | –
298.15 K, 12000 kPa, x1 = 0.902 | 863 ± 2 | –
298.15 K, 12000 kPa, x1 = 1 | 877 ± 2 | –
298.15 K, 15000 kPa, x1 = 0.101 | 720 ± 2 | 0.555 ± 0.017
298.15 K, 15000 kPa, x1 = 0.202 | 744 ± 2 | 0.671 ± 0.021
298.15 K, 15000 kPa, x1 = 0.299 | 766 ± 2 | 0.806 ± 0.025
298.15 K, 15000 kPa, x1 = 0.403 | 786 ± 2 | 0.958 ± 0.03
298.15 K, 15000 kPa, x1 = 0.501 | 805 ± 2 | 1.121 ± 0.035
298.15 K, 15000 kPa, x1 = 0.601 | 822 ± 2 | 1.308 ± 0.041
298.15 K, 15000 kPa, x1 = 0.698 | 837 ± 2 | 1.524 ± 0.047
298.15 K, 15000 kPa, x1 = 0.799 | 852 ± 2 | 1.757 ± 0.054
298.15 K, 15000 kPa, x1 = 0.902 | 865 ± 2 | 1.995 ± 0.062
298.15 K, 15000 kPa, x1 = 1 | 878 ± 2 | 2.272 ± 0.07
308.15 K, 100 kPa, x1 = 0.101 | 698 ± 2 | 0.394 ± 0.012
308.15 K, 100 kPa, x1 = 0.202 | 722 ± 2 | 0.454 ± 0.014
308.15 K, 100 kPa, x1 = 0.299 | 744 ± 2 | 0.52 ± 0.016
308.15 K, 100 kPa, x1 = 0.403 | 765 ± 2 | 0.613 ± 0.019
308.15 K, 100 kPa, x1 = 0.501 | 784 ± 2 | 0.716 ± 0.022
308.15 K, 100 kPa, x1 = 0.601 | 801 ± 2 | 0.843 ± 0.026
308.15 K, 100 kPa, x1 = 0.698 | 818 ± 2 | 0.999 ± 0.031
308.15 K, 100 kPa, x1 = 0.799 | 833 ± 2 | 1.173 ± 0.036
308.15 K, 100 kPa, x1 = 0.902 | 847 ± 2 | 1.351 ± 0.042
308.15 K, 100 kPa, x1 = 1 | 860 ± 2 | 1.628 ± 0.05
308.15 K, 3000 kPa, x1 = 0.101 | 700 ± 2 | 0.411 ± 0.013
308.15 K, 3000 kPa, x1 = 0.202 | 724 ± 2 | 0.475 ± 0.015
308.15 K, 3000 kPa, x1 = 0.299 | 747 ± 2 | 0.547 ± 0.017
308.15 K, 3000 kPa, x1 = 0.403 | 767 ± 2 | 0.644 ± 0.02
308.15 K, 3000 kPa, x1 = 0.501 | 786 ± 2 | 0.752 ± 0.023
308.15 K, 3000 kPa, x1 = 0.601 | 804 ± 2 | 0.885 ± 0.028
308.15 K, 3000 kPa, x1 = 0.698 | 820 ± 2 | 1.045 ± 0.033
308.15 K, 3000 kPa, x1 = 0.799 | 835 ± 2 | 1.224 ± 0.038
308.15 K, 3000 kPa, x1 = 0.902 | 849 ± 2 | 1.407 ± 0.044
308.15 K, 3010 kPa, x1 = 1 | 862 ± 2 | 1.675 ± 0.052
308.15 K, 6000 kPa, x1 = 0.101 | 703 ± 2 | 0.428 ± 0.013
308.15 K, 6000 kPa, x1 = 0.202 | 727 ± 2 | 0.496 ± 0.015
308.15 K, 6000 kPa, x1 = 0.299 | 750 ± 2 | 0.574 ± 0.018
308.15 K, 6000 kPa, x1 = 0.403 | 770 ± 2 | 0.676 ± 0.021
308.15 K, 6000 kPa, x1 = 0.501 | 789 ± 2 | 0.789 ± 0.025
308.15 K, 6000 kPa, x1 = 0.601 | 806 ± 2 | 0.926 ± 0.029
308.15 K, 6000 kPa, x1 = 0.698 | 822 ± 2 | 1.091 ± 0.034
308.15 K, 6000 kPa, x1 = 0.799 | 837 ± 2 | 1.276 ± 0.04
308.15 K, 6000 kPa, x1 = 0.902 | 851 ± 2 | 1.463 ± 0.045
308.15 K, 6000 kPa, x1 = 1 | 864 ± 2 | 1.727 ± 0.053
